Results from US20110015226A1, “Treatment of Energy Utilization Disease” (SUMMIT CORPORATION PLC, priority 2008, published 2011).

Legend:
[1] = test system: N-acetyl-β-D-glucosaminidase (Bovine kidney); experiment: Glycosidase inhibition: N-acetyl-β-D-glucosaminidase (Bovine kidney); assay type: biochemical; conditions: for % Nacetyl glucosaminidase inhibition at 0.8 mM Bovine kidney: approximately 0.8 mM; for IC50: read-out: IC50 Nacetyl glucosaminidase Bovine kidney;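 as to all read-outs here: enzyme activity followed by cleavage of the matching p-nitrophenyl glycoside (5 mM) in phosphate buffer set to the enzyme's optimal pH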
[2] = target: T1, β-Glucuronidase Bovine liver (Bos taurus, UniProt A3KMY8); experiment: Glycosidase inhibition: β-Glucuronidase Bovine liver; assay type: biochemical; conditions: for % Glucuronidase inhibition at 0.8 mM Bovine Liver: approximately 0.8 mM; for IC50: read-out: IC50 Glucuronidase Bovine Liver;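 as to all read-outs here: bovine liver β-glucuronidase acting on p-nitrophenyl β-D-glucuronide substrate in citric acid/disodium hydrogen phosphate buffer, pH 5.0, 27 °C, mean of triplicate runs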
T1 construct: The assay involved the use of Bovine liver β-glucuronidase; purchased Sigma; host or cells: bovine liver
T1 sequence (A3KMY8 1-652): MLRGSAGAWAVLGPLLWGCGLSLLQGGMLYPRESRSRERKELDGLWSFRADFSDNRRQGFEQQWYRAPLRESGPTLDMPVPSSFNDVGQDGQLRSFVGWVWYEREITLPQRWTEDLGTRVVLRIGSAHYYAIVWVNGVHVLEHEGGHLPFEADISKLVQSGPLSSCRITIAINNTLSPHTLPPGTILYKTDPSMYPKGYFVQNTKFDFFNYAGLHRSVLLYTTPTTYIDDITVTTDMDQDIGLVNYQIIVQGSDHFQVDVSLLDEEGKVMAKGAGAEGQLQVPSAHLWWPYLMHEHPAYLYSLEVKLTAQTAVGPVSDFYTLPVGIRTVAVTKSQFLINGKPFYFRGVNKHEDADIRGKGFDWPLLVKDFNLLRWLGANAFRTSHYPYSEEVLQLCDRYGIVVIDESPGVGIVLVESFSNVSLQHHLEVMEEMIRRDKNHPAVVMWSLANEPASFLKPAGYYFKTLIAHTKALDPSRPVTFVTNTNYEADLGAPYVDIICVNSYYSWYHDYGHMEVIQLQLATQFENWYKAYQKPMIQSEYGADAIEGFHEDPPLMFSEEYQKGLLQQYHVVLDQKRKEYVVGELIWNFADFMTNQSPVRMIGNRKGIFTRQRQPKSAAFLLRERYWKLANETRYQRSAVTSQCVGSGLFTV

| % Nacetyl glucosaminidase inhibition at 0.8 mM Bovine kidney [1] [%] | % Glucuronidase inhibition at 0.8 mM Bovine Liver [2] [%] | IC50 [1] [µM] | IC50 [2] [µM] | SMILES | Mean % Inhibition, N-acetyl-β-D-glucosaminidase Bovine kidney ([1]; 143 ug/ml) [%] | inhibition at 143 µg/mL ([2]; 143 ug/ml) [%] |
| --- | --- | --- | --- | --- | --- | --- |
| −0.6 | −4.4 | – | – | C[N+]1([O-])CC[C@H](O)[C@@H]1C(=O)O (stereo partly drawn) | – | – |
| 25.8 | 3.3 | – | – | O=C(O)[C@H]1N[C@H](CO)C(O)[C@H](O)[C@@H]1O (stereo partly drawn) | – | – |
| 8 | 3.8 | – | – | C[N+]1(C)C[C@@H](O)[C@H](O)[C@H]1C(=O)[O-] | – | – |
| −4.7 | −3.7 | – | – | CN1C[C@H](O)C[C@H]1C(=O)O | – | – |
| 82.3 | 4 | 137 | – | O=C(O)CN1C[C@@H](O)[C@@H](O)C1[C@@H](O)CO (stereo partly drawn) | – | – |
| – | – | – | – | Cn1c(=O)c2c(ncn2C)n(C)c1=O [Caffeine, reference compound] | 1.3 | -2.4 |
| 8 | 0.8 | – | – | CC[C@@H]1C(=O)[C@H](O)CN1CCCCC(=O)O | – | – |
| 2.9 | 1.4 | – | – | O=C(O)[C@]1(O)NC[C@@H](O)[C@H]1O | – | – |
| 57.9 | 97.9 | – | 7.3 | CC(=O)NC1NC[C@H](C(=O)O)[C@H](O)[C@@H]1O (stereo partly drawn) | – | – |
| 49.4 | 3.9 | – | – | CCC1CC(CC2CC(CCCC(C)C)[C@@H](CC)C(C)[C@H]2C)C(C)C(C)C1C (stereo partly drawn) | – | – |
| 4.8 | 58.6 | – | 531 | O=C(O)[C@@]1(O)CNC[C@@H](O)[C@H]1O | – | – |
| 2.3 | −1.7 | – | – | C[N+]1(C)CCC[C@H]1C(=O)[O-] | – | – |
| −5.2 | 99.6 | – | 0.04 | O=C(O)[C@H]1NC(=O)[C@H](O)[C@@H](O)[C@@H]1O | – | – |
| 7.6 | 0.6 | – | – | C[C@@]1(C(=O)O)NC[C@H](O)[C@H]1O | – | – |
| 6.6 | 13.8 | – | – | O=C(O)[C@H]1NCC(O)C1O (stereo partly drawn) | – | – |
| 17 | −2 | – | – | CC[C@@H]1C(C)[C@H](C)CN1CCCC(C)=O (stereo partly drawn) | – | – |
| −4.2 | −3.2 | – | – | CC(O)(CC(N)C(=O)O)C(=O)O (stereo not drawn) | – | – |
| 7.1 | −2.2 | – | – | N[C@]1(C(=O)O)C[C@H](CO)C1 | – | – |
| 90.1 | 85.3 | 5.1 | 81 | O=C(O)CCC1[C@H](CO)C(=O)[C@H](O)[C@H]1CO (stereo partly drawn) | – | – |

| SMILES | % Nacetyl glucosaminidase inhibition at 0.8 mM Bovine kidney [1] [%] | % Glucuronidase inhibition at 0.8 mM Bovine Liver [2] [%] | IC50 [1] [µM] | IC50 [2] [µM] | Mean % Inhibition, N-acetyl-β-D-glucosaminidase Bovine kidney ([1]; 143 ug/ml) [%] | inhibition at 143 µg/mL ([2]; 143 ug/ml) [%] |
| --- | --- | --- | --- | --- | --- | --- |
| CC(CC(N)C(=O)O)C(=O)O (stereo not drawn) | 0.8 | −1.6 | – | – | – | – |
| O=C(O)[C@@H]1[C@@H](O)[C@H](O)[C@H]2[C@@H](O)CCN21 | 5.1 | −2.3 | – | – | – | – |
| O=C(O)[C@H]1NC[C@H](O)[C@@H](O)[C@@H]1O [drawing 22] | 2.4 | 88.9 | – | 107 | – | – |
